Assay results published in patent US11433090B2, “mTOR-inhibitor-containing medicine for treating or preventing ophthalmic symptoms, disorders, or diseases, and application thereof” (The Doshisha, priority 2017, dated 2022).

Test system: caspase 3/7
Experiment: Caspase-Glo 3/7 Assay in iFECD stimulated with TGF-β2
Format: cell-based, human
Conditions: TGF-β2 10 ng/ml, Dunnett-t test, n=5
Description: The medium was removed from a culture dish in which iFECDs were being cultured, and the cells were supplemented with 1×PBS (−) that was preheated to 37° C., and were washed. This was repeated twice. The cells were supplemented again with 1×PBS (−) and incubated for 3 minutes at 37° C. (5% CO2). After removing the PBS (−), the cells were supplemented with 0.05% Trypsin-EDTA (Nacalai Tesque, 32778-34) and incubated for 5 minutes at 37° C. (5% CO2). The cells were then suspended in a medium, and collected by centrifugation at 1500 rpm for 3 minutes. DMEM (Nacalai Tesque, 08456-36)+10% FBS (Biowest, S1820-500)+1% P/S (Nacalai Tesque, 26252-94) was used as the medium.
Corneal endothelial cells from immortalized FECD patients (lot: iFECD3-5) were seeded on a 96-well plate at a ratio of 4×10^3 cells per well and cultured for 24 hours at 37° C. (5% CO2) (medium: DMEM+10% FBS+1% P/S). After 24 hours, the medium was removed. Each mTOR inhibitor was added to culture the cells for 24 hours (medium: DMEM+2% FBS+1% P/S). After 24 hours, the medium was removed. Media containing 10 ng/ml of Recombinant Human TGF-β2 (Wako, 200-19911) and each mTOR inhibitor were added to culture the cells for 24 hours (medium: DMEM+2% FBS+1% P/S). After 24 hours, the cell morphology and apoptosis were observed under a phase difference microscope.
After observation, measurement of caspase 3/7 activity by Caspase-Glo® 3/7 Assay was carried out with the following procedure.
The medium was discarded to achieve 50 μl per well. 50 μl/well of Caspase Glo® 3/7 Assay Reagent (mixture of Caspase-Glo® 3/7 Assay Buffer and Caspase-Glo® 3/7 Assay Substrate) (Promega, G8091) solution was added so as to achieve 1:1 with the medium. The operations hereafter were carried out while being shaded. A shaker was used to mix the content well for two minutes at about 120 minutes^−1 to then be left for 40 minutes at room temperature. After being left, 80 μl was moved to Assay plate (Corning, 3912, Assay plate 96 well, white polystyrene) and […] was measured using GloMax-Multi Detection System (Promega, E7051).
The following mTOR inhibitors were used in this Example. • Rapamycin (Wako, #53123-88-9) • Everolimus (Cayman Chemical, #11597) • Temsirolimus (Tocris Bioscience, #5264) • PI-103 (Cayman Chemical, #10009209) • CC-223 (Cayman Chemical, #19917) • INK128 (Cayman Chemical, #11811) • AZD8055 (Cayman Chemical, #16978) • KU 0063794 (Tocris Bioscience, #3725)

| SMILES | activity of caspase 3/7 compared to control (0.01 μM) | activity of caspase 3/7 compared to control (0.1 μM) | activity of caspase 3/7 compared to control (1 μM) | activity of caspase 3/7 compared to control (0.001 μM) | activity of caspase 3/7 compared to control (0.00001 μM) | activity of caspase 3/7 compared to control (0.0001 μM) | activity of caspase 3/7 compared to control (0.000001 μM) | activity of caspase 3/7 compared to control (10 μM) |
| --- | --- | --- | --- | --- | --- | --- | --- | --- |
| COc1ccc(-c2ccc3c(N4CCOC[C@@H]4C)nc(N4CCOC[C@@H]4C)nc3n2)cc1CO [AZD8055] | significantly suppressed | significantly suppressed | significantly suppressed |  |  |  |  |  |
| CO[C@H]1CC[C@H](N2C(=O)CNc3ncc(-c4ccc(C(C)(C)O)nc4)nc32)CC1 [CC-223] | significantly suppressed | significantly suppressed | significantly suppressed | significantly suppressed |  |  |  |  |
| CC(C)n1nc(-c2ccc3oc(N)nc3c2)c2c(N)ncnc21 [INK128] | significantly suppressed | significantly suppressed | significantly suppressed | significantly suppressed |  |  |  |  |
| COc1ccc(-c2ccc3c(N4CCOCC4)nc(N4C[C@@H](C)O[C@@H](C)C4)nc3n2)cc1CO [KU 0063794] | significant difference was not found | significantly suppressed | significantly suppressed | significant difference was not found |  |  |  |  |
| Oc1cccc(-c2nc(N3CCOCC3)c3oc4ncccc4c3n2)c1 [PI-103] | significantly suppressed | significantly suppressed | significant difference was not found | significantly suppressed |  |  |  |  |
| CO[C@H]1C[C@@H]2CC[C@@H](C)[C@@](O)(O2)C(=O)C(=O)N2CCCC[C@H]2C(=O)O[C@H]([C@H](C)C[C@@H]2CC[C@@H](OCCO)[C@H](OC)C2)CC(=O)[C@H](C)/C=C(\C)[C@@H](O)[C@@H](OC)C(=O)[C@H](C)C[C@H](C)/C=C/C=C/C=C/1C [everolimus, Everolimus] | significantly suppressed | significantly suppressed |  | significantly suppressed | significantly suppresses | significantly suppressed |  |  |
| CO[C@H]1C[C@@H]2CC[C@@H](C)[C@@](O)(O2)C(=O)C(=O)N2CCCC[C@H]2C(=O)O[C@H]([C@H](C)C[C@@H]2CC[C@@H](OC(=O)C(C)(CO)CO)[C@H](OC)C2)CC(=O)[C@H](C)/C=C(\C)[C@@H](O)[C@@H](OC)C(=O)[C@H](C)C[C@H](C)/C=C/C=C/C=C/1C [temsirolimus, Temsirolimus] | significantly suppressed | significantly suppressed | significantly suppressed | significantly suppressed | significantly suppressed | significantly suppressed | significant difference was not found | significantly suppressed |
